Experimental data: patent publication US10377770B2 (Novartis AG, priority 2015, dated 2019)

target: C-Raf FL (full length CRAF with Y340E and Y341E activating mutations, co-expressed with h14-3-3 zeta) (Homo sapiens (Human), UniProt P04049, Y340E/Y341E); experiment: In vitro Raf activity determination, AlphaScreen p-MEK readout, c-Raf (C-Raf FL); format: biochemical; details: c-Raf approximately 4 nM, ATP 1 μM, pre-incubation 60 minutes, reaction 1 hour
Text: Sf9 cells co-expressing both proteins were lysed and subjected to immobilized nickel chromatography and eluted with Imidazole. A second column (StrepII binding column) was used and eluted with desthiobiotin. Protein Tags were removed using Prescission enzyme and the protein was further purified using a flowthrough step to remove tags.
C-Raf TR refers to a truncated C-Raf protein, a Δ1-324 deletion mutant. C-Raf FL refers to the full-length C-Raf protein.
Full length MEK1 with an inactivating K97R ATP binding site mutation is utilized as a RAF substrate. The MEK1 cDNA was subcloned with an N-terminal (his)6 tag into a vector for E. Coli expression. The MEK1 substrate was purified from E. Coli lysate by nickel affinity chromatography followed by anion exchange. The final MEK1 preparation was biotinylated (Pierce EZ-Link Sulfo-NHS-LC-Biotin) and concentrated.
Assay Materials: Assay buffer is 50 mM Tris, pH 7.5, 15 mM MgCl2, 0.01% Bovine Serum Albumin (BSA) and 1 mM dithiothreitol (DTT); Stop buffer is 60 mM ethylenediaminetetraacetic acid (EDTA) and 0.01% Tween® 20; b-Raf (V600E), active; biotinylated Mek, kinase dead; Alpha Screen detection kit (available from PerkinElmer™, #6760617R); Anti phospho-MEK1/2 (available from Cell Signaling Technology, Inc. #9121); 384 well low volume assay plates (White Greiner® plates).
Assay conditions: b-Raf (V600E) approximately 4 pM; c-Raf approximately 4 nM; biotinylated Mek, kinase dead approximately 10 nM; ATP 10 μM for BRAF (V600E) and 1 μM for CRAF; Pre-incubation time with compounds 60 minutes at room temperature; Reaction time 1 or 3 hours at room temperature.
Assay protocol: Raf and biotinylated Mek (kinase dead) were combined at 2× final concentrations in assay buffer (50 mM Tris, pH 7.5, 15 mM MgCl2, 0.01% BSA and 1 mM DTT) and dispensed […] per well in assay plates (Greiner white 384 well assay plates #781207) containing […] of 40× of a Raf kinase inhibitor test compound diluted in 100% DMSO. The plate was incubated for 60 minutes at room temperature. The Raf kinase activity reaction was started by the addition of […] per well of 2×ATP diluted in assay buffer. After 3 hours (b-Raf(V600E)) or 1 hour (c-Raf). The reactions were stopped and the phosphorylated product was measured using a rabbit anti-p-MEK (Cell Signaling, #9121) antibody and the Alpha Screen IgG (ProteinA) detection Kit (PerkinElmer #6760617R), by the addition of […] to the well of a mixture of the antibody (1:2000 dilution) and detection beads (1:2000 dilution of both beads) in Stop/bead buffer (25 mM EDTA, 50 mM Tris, pH 7.5, 0.01% Tween20). The additions were carried out under dark conditions to protect the detection beads from light. A lid was placed on top of the plate and incubated for 1 hour at room temperature, after which the luminescence was read on a PerkinElmer Envision instrument.

Sequence of C-Raf FL (full length CRAF with Y340E and Y341E activating mutations, co-expressed with h14-3-3 zeta) (P04049 whole entry Y340E/Y341E): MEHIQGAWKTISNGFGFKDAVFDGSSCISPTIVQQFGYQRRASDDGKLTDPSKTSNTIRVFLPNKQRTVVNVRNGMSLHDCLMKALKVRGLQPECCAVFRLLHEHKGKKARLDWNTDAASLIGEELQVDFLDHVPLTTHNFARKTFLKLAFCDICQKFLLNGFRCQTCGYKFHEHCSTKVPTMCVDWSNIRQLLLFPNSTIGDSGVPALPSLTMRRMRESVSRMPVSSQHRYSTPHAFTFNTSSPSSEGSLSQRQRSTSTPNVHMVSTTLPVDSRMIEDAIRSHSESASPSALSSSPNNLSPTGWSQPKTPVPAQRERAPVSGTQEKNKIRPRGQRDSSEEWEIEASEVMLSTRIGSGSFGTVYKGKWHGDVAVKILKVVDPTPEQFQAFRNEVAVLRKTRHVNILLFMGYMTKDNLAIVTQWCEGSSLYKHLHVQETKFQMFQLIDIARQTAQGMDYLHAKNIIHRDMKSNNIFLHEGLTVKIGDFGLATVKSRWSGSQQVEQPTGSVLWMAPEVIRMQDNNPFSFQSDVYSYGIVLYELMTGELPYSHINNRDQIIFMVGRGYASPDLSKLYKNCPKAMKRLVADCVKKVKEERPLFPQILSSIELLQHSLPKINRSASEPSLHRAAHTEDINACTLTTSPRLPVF
Sequence of C-Raf FL (full length CRAF with Y340E and Y341E activating mutations, co-expressed with h14-3-3 zeta) (P63104 whole entry partner): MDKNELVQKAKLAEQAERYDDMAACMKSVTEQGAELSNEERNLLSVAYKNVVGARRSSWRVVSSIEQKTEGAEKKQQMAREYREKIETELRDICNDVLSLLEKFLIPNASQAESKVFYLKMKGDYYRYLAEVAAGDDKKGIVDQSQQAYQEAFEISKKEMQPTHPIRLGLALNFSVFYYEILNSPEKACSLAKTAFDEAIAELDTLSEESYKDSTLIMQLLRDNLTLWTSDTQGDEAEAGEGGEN

| SMILES | IC50 [pM] |
| --- | --- |
| Cc1ccc(NC(=O)c2ccnc(C(F)(F)F)c2)cc1-c1ccc2c(c1)N1CCOCC1C1(COC1)C2 (racemic) [Example 54, (rac)-N-(4-methyl-3-(2,4,4a,6-tetrahydro-1H-spiro[[1,4]oxazino[4,3-a]quinoline-5,3′-oxetan]-9-yl)phenyl)-2-(trifluoromethyl)isonicotinamide] | 13 |
| Cc1ccc(NC(=O)c2ccnc(C(C)(F)F)c2)cc1-c1ccc2c(c1)N1CCOCC1C1(COC1)C2 (racemic) [Example 55, (rac)-2-(1,1-difluoroethyl)-N-(4-methyl-3-(2,4,4a,6-tetrahydro-1H-spiro[[1,4]oxazino[4,3-a]quinoline-5,3′-oxetan]-9-yl)phenyl)isonicotinamide] | 22 |
| Cc1ncc(NC(=O)c2cccc(C(F)(F)F)c2)cc1-c1ccc2c(c1)N1CCOCC1C1(COC1)C2 (racemic) [Example 56, (rac)-N-(6-methyl-5-(2,4,4a,6-tetrahydro-1H-spiro[[1,4]oxazino[4,3-a]quinoline-5,3′-oxetan]-9-yl)pyridin-3-yl)-3-(trifluoromethyl)benzamide] | 71 |
| Cc1ccc(NC(=O)c2ccnc(C(F)(F)F)c2)cc1-c1ccc2c(c1)N1CCOCC1C(CO)C2 (racemic) [Example 59, (rac)-N-(3-(5-(hydroxymethyl)-1,2,4,4a,5,6-hexahydro-[1,4]oxazino[4,3-a]quinolin-9-yl)-4-methylphenyl)-2-(trifluoromethyl)isonicotinamide] | 8.9 |
| Cc1ccc(NC(=O)c2ccnc(C(C)(F)F)c2)cc1-c1ccc2c(c1)N1CCOCC1C(CO)C2 (racemic) [Example 60, (rac)-2-(1,1-difluoroethyl)-N-(3-(5-(hydroxymethyl)-1,2,4,4a,5,6-hexahydro-[1,4]oxazino[4,3-a]quinolin-9-yl)-4-methylphenyl)isonicotinamide] | 19 |
| Cc1ncc(NC(=O)c2cccc(C(F)(F)F)c2)cc1-c1ccc2c(c1)N1CCOCC1C(CO)C2 (racemic) [Example 61, (rac)-N-(5-(5-(hydroxymethyl)-1,2,4,4a,5,6-hexahydro-[1,4]oxazino[4,3-a]quinolin-9-yl)-6-methylpyridin-3-yl)-3-(trifluoromethyl)benzamide] | 33 |
| CNC(=O)C1Cc2ccc(-c3cc(NC(=O)c4ccnc(C(F)(F)F)c4)ccc3C)cc2N2CCOCC12 (racemic) [Example 66, (rac)-N-methyl-9-(2-methyl-5-(2-(trifluoromethyl)isonicotinamido)phenyl)-1,2,4,4a,5,6-hexahydro-[1,4]oxazino[4,3-a]quinoline-5-carboxamide] | 110 |
| CNC(=O)C1Cc2ccc(-c3cc(NC(=O)c4ccnc(C(C)(F)F)c4)ccc3C)cc2N2CCOCC12 (racemic) [Example 67, (rac)-9-(5-(2-(1,1-difluoroethyl)isonicotinamido)-2-methylphenyl)-N-methyl-1,2,4,4a,5,6-hexahydro-[1,4]oxazino[4,3-a]quinoline-5-carboxamide] | 130 |
| CNC(=O)C1Cc2ccc(-c3cc(NC(=O)c4cccc(C(F)(F)F)c4)cnc3C)cc2N2CCOCC12 (racemic) [Example 68, (rac)-N-methyl-9-(2-methyl-5-(3-(trifluoromethyl)benzamido)pyridin-3-yl)-1,2,4,4a,5,6-hexahydro-[1,4]oxazino[4,3-a]quinoline-5-carboxamide] | 340 |
| CCNC(=O)C1Cc2ccc(-c3cc(NC(=O)c4ccnc(C(F)(F)F)c4)ccc3C)cc2N2CCOCC12 (racemic) [Example 73, (rac)-N-ethyl-9-(2-methyl-5-(2-(trifluoromethyl)isonicotinamido)phenyl)-1,2,4,4a,5,6-hexahydro-[1,4]oxazino[4,3-a]quinoline-5-carboxamide] | 200 |
| CCNC(=O)C1Cc2ccc(-c3cc(NC(=O)c4ccnc(C(C)(F)F)c4)ccc3C)cc2N2CCOCC12 (racemic) [Example 74, (rac)-9-(5-(2-(1,1-difluoroethyl)isonicotinamido)-2-methylphenyl)-N-ethyl-1,2,4,4a,5,6-hexahydro-[1,4]oxazino[4,3-a]quinoline-5-carboxamide] | 280 |
| CCNC(=O)C1Cc2ccc(-c3cc(NC(=O)c4cccc(C(F)(F)F)c4)cnc3C)cc2N2CCOCC12 (racemic) [Example 75, (rac)-N-ethyl-9-(2-methyl-5-(3-(trifluoromethyl)benzamido)pyridin-3-yl)-1,2,4,4a,5,6-hexahydro-[1,4]oxazino[4,3-a]quinoline-5-carboxamide] | 480 |
| Cc1ccc(NC(=O)c2ccnc(C(C)(F)F)c2)cc1-c1ccc2c(c1)N1CCOCC1C(F)(CO)C2 (racemic) [Example 78, (rac)-2-(1,1-difluoroethyl)-N-(3-(5-fluoro-5-(hydroxymethyl)-1,2,4,4a,5,6-hexahydro-[1,4]oxazino[4,3-a]quinolin-9-yl)-4-methylphenyl)isonicotinamide] | 20 |
| Cc1ncc(NC(=O)c2ccnc(C(C)(F)F)c2)cc1-c1ccc2c(c1)N1CCOCC1C(F)(CO)C2 (racemic) [Example 79, (rac)-2-(1,1-difluoroethyl)-N-(5-(5-fluoro-5-(hydroxymethyl)-1,2,4,4a,5,6-hexahydro-[1,4]oxazino[4,3-a]quinolin-9-yl)-6-methylpyridin-3-yl)isonicotinamide] | 38 |
| Cc1ncc(NC(=O)c2ccnc(C(C)(F)F)c2)cc1-c1ccc2c(c1)N1CCOC[C@H]1[C@](C)(C#N)C2 (racemic) [Example 87, (rac)-N-(5-(5-cyano-5-methyl-1,2,4,4a,5,6-hexahydro-[1,4]oxazino[4,3-a]quinolin-9-yl)-6-methylpyridin-3-yl)-2-(1,1-difluoroethyl)isonicotinamide] | 22 |
| Cc1ccc(NC(=O)c2ccnc(C(C)(F)F)c2)cc1-c1ccc2c(c1)N1CCOC[C@H]1[C@@](C)(C#N)C2 (racemic) [Example 88, (rac)-N-(3-(5-cyano-5-methyl-1,2,4,4a,5,6-hexahydro-[1,4]oxazino[4,3-a]quinolin-9-yl)-4-methylphenyl)-2-(1,1-difluoroethyl)isonictinamide] | 32 |
| Cc1ncc(NC(=O)c2ccnc(C(C)(F)F)c2)cc1-c1ccc2c(c1)N1CCOC[C@H]1[C@@](C)(C#N)C2 (racemic) [Example 89, (rac)-N-(5-(5-cyano-5-methyl-1,2,4,4a,5,6-hexahydro-[1,4]oxazino[4,3-a]quinolin-9-yl)-6-methylpyridin-3-yl)-2-(1,1-difluoroethyl)isonicotinamide] | 36 |
| Cc1ccc(NC(=O)c2ccnc(C(C)(F)F)c2)cc1-c1ccc2c(c1)N1CCOC[C@H]1[C@H](C#N)C2 (racemic) [Example 90, (rac)-N-(3-(5-cyano-1,2,4,4a,5,6-hexahydro-[1,4]oxazino[4,3-a]quinolin-9-yl)-4-methylphenyl)-2-(1,1-difluoroethyl)isonicotinamid] | 23 |
| Cc1ncc(NC(=O)c2ccnc(C(C)(F)F)c2)cc1-c1ccc2c(c1)N1CCOC[C@H]1[C@H](C#N)C2 (racemic) [Example 91, (rac)-N-(5-(5-cyano-1,2,4,4a,5,6-hexahydro-[1,4]oxazino[4,3-a]quinolin-9-yl)-6-methylpyridin-3-yl)-2-(1,1-difluoroethyl)isonicotinamide] | 76 |
